Experiments:
[1] = tested on: activated human T cells; experiment: Fura-2 calcium imaging in activated human T cells; format: cell-based; conditions: for [Ca^2+]i elevation evoked by readdition of extracellular Ca^2+ ([Ca^2+]SOCE): activated T cells preincubated 30 min with 500 μM Ry or 30 μM Da, p<0.01, n=7
Experimental: (§1) All studies involving human subjects were performed after approval by UC Davis Institutional Review Board and after all subjects gave written informed consent. Resting CD3^+ human lymphocytes were isolated from the peripheral blood of healthy consented adults using RosetteSep™ human lymphocyte enrichment kit (Stem Cell Tech.) following the manufacturer's instructions. Resting T cells were resuspended at 0.5−1×10^6 cells/ml in […] medium supplemented with 10 mM HEPES, 10% fetal bovine serum, 2% L-glutamine, 2% vitamins solution, 1% RPMI amino acids solution, and 0.01% β-mercaptoethanol and maintained in suspension in 5% CO2 at 37° C. Resting T cells were activated on the day of isolation by incubation with either PHA ([…]) or anti-CD3 antibody coated onto the tissue culture plates and soluble anti-CD28 antibody (5 m/ml; BD Biosciences). Resting T cells were taken for analysis on the day of isolation, whereas activated T cells were tested 4-5 days after activation.
Cell cultures and chemicals were as described in the Example 1. Before experiment, cells were plated on poly-l-lysine-coated glass-bottom clambers and then loaded with 1 μM fura-2/AM and pluronic F-127 for 5 min in modified Tyrode solution containing (in mM): 130 NaCl, 5.6 KCl, 1 MgCl2, 2 CaCl2, 10 HEPES, 10 D-glucose; pH 7.3. After washing, cells were incubated for additional 30 min at 37° C. […] In nominally Ca^2+-free solution, Ca^2+ was omitted.
Fluorescence images were acquired from adherent cells using a SenSys CCD camera (Roper Scientific, Tucson, Ariz.) and a 40× oil immersion Zeiss objective on a Zeiss Axiovert 200 inverted microscope (Thornwood, N.Y.). Lambda DG-4 filter changer (Sutter Instrument, Novato, Calif.) was used for switching between 340 and 380 nm excitation wavelengths. All experiments were performed at room temperature. Solution exchange was performed via a gravity-driven perfusion system. Solution exchange in the recording chamber was completed within 5 s. […] Unless otherwise indicated, in each experiment changes in [Ca^2+]i were recorded from 15-20 cells and then averaged.

[2] = tested on: Jurkat T cells; experiment: Manganese quench of fura-2 fluorescence (divalent cation influx via SOC channels); format: cell-based, human; conditions: Jurkat T cells preincubated 30 min with 400 μM Ry; with or without 30 μM CPA; n=5
Description: Because Mn^2+ readily passes through SOC channels (Missiaen, L., Declerck, I., Droogmans, G., Plessers, L., De Smedt, H., Raeymaekers, L., and Casteels, R. (1990) J Physiol 427, 171-186) and is unlikely to be transported from the cytosol (Chiesi, M., and Inesi, G. (1980) Biochemistry 19(13), 2912-2918; Chiesi, M., and Inesi, G. (1981) Arch Biochem Biophys 208(2), 586-592), the rate of fura-2 quenching in the presence of Mn^2+ was used as a measure of divalent cation influx into the bulk cytoplasm in intact cells. The extracellular solution used in all Mn^2+ quench experiments contained (in mM): 130 NaCl, 5.6 KCl, 1 MgCl2, 0.3 CaCl2, 0.5 MnCl2, 10 HEPES, 10 D-glucose; pH 7.3. Changes in Ca^2+-independent fluorescence due to Mn^2+ quench were determined using method described by Zhou & Neher (Zhou, Z., and Neher, E. (1993) J Physiol 469, 245-273). Briefly, background corrected fura-2 fluorescence excited at 340 nm (F340) was plotted against background corrected fura-2 fluorescence excited at 380 nm (F380) during the initial 10 seconds following application of 30 μM cyclopiazonic acid (CPA). The slope of the F340 versus F380 relationship equals the ‘isocoefficient’ α. The fluorescence value, Fi, which is unaffected by changes in [Ca^2+]i, was determined as: […]. […]

[3] = tested on: Jurkat T cells; experiment: CFSE proliferation assay, Jurkat T cells; format: cell-based, human; conditions: 400 μM Ry or 30 μM Da, 72 hours
Experimental: (§2) Cell cultures and chemicals were as described in the Example 1. Proliferation assay—Cell division track assay was conducted using carboxyfluorescein succinimidyl ester (CFSE) proliferation kit (Molecular probes). Stock solution of CFSE (4 mM) was prepared in DMSO. Cells were washed, resuspended in PBS containing 4 μM CFSE at density 1×10^6 cells/ml, and incubated at 37° C. for 10 min. Labeling was quenched by adding 5× volume of RPMI 1640 culture media containing 10% FBS. After washing 3 times with RPMI 1640+10% FBS, cells were placed into FBS-free cell culture media to abolish cell division and kept overnight in 5% CO2 at 37° C. After overnight incubation, the CFSE-labeled cells were pellet down and fraction of them (˜50000) were fixed with 1% paraformaldehyde in PBS and analyzed by flow cytometry to establish the CFSE fluorescence profile of undivided cells. […] Fluorescence intensity was measured at 488 nm using FACScan flow cytometer and CellQuest software (Becton Dickinson Bioscience, Mountain View, Calif.). The number of cell divisions was calculated using FlowJo software (Tree Star Inc, Ashland, Oreg.). […]
(§3) Freshly isolated CD3^+ resting human T cells or Jurkat T cells were loaded with CFSE and fraction of them was fixed with 1% paraformaldehyde in PBS and analyzed by flow cytometry to establish the CFSE fluorescence profile of undivided cells (time 0). […]

[4] = tested on: Jurkat T cells; experiment: IL-2 production assay (ELISA), PHA-stimulated Jurkat T cells; format: cell-based, human; conditions: Ry 400 μM or Da 30 μM applied 30 min prior to PHA, 24 hours, p<0.01, n=6
Experimental: Jurkat T cells were washed 3 timed with PBS and resuspended in FBS-free cell culture media at density 0.8×10^6 cells/ml and seeded into 96 well tissue culture plate (0.4 ml per well) and then stimulated with […] mitogenic lectin phytohaemagglutinin P (PHA). Some cells were pre-incubated for 30 min at 37° C. with, Ry (400 μM), or dantrolene (30 μM) prior to stimulation with PHA. After 24 hours of incubation, cells culture supernatants were collected and contents of IL-2 was determined by ELISA using Quantikine kits (R&D systems, Minneapolis, Minn.) according to manufacturer instructions.

[5] = tested on: Jurkat T cells; experiment: Fura-2 calcium imaging in Jurkat T cells; format: cell-based, human
Experimental: Cell cultures and chemicals were as described in the Example 1. Before experiment, cells were plated on poly-l-lysine-coated glass-bottom clambers and then loaded with 1 μM fura-2/AM and pluronic F-127 for 5 min in modified Tyrode solution containing (in mM): 130 NaCl, 5.6 KCl, 1 MgCl2, 2 CaCl2, 10 HEPES, 10 D-glucose; pH 7.3. After washing, cells were incubated for additional 30 min at 37° C. Some cells were incubated in Modified Tyrode solution containing 400 μM Ry, 30 μM dantrolene, or vehicles (methanol or, ethanol, or DMSO) alone for 30 min at 37° C. In nominally Ca^2+-free solution, Ca^2+ was omitted.
Fluorescence images were acquired from adherent cells using a SenSys CCD camera (Roper Scientific, Tucson, Ariz.) and a 40× oil immersion Zeiss objective on a Zeiss Axiovert 200 inverted microscope (Thornwood, N.Y.). Lambda DG-4 filter changer (Sutter Instrument, Novato, Calif.) was used for switching between 340 and 380 nm excitation wavelengths. All experiments were performed at room temperature. Solution exchange was performed via a gravity-driven perfusion system. Solution exchange in the recording chamber was completed within 5 s. The vehicles-containing solutions (methanol or DMSO) were applied in place of the drugs in all control experiments. Data acquisition was performed using MetaFluor v7.0 software (Universal Imaging, Downingtown, Pa.). [Ca^2+]i values were estimated from fura-2 calibration as described previously (Grynkiewicz, G., Poenie, M., and Tsien, R. Y. (1985) J Biol Chem 260(6), 3440-3450). Kd was taken as 248 nM (Fanger, C. M., Neben, A. L., and Cahalan, M. D. (2000) J Immunol 164(3), 1153-1160). Unless otherwise indicated, in each experiment changes in [Ca^2+]i were recorded from 15-20 cells and then averaged.

[6] = tested on: human T cells; experiment: CFSE proliferation assay, human T cells activated with anti-CD3/CD28 Ab; format: cell-based; conditions: 400 μM Ry or 30 μM Da; anti-CD3/CD28 Ab activation
Experimental: as §2, §3

[7] = tested on: resting human T cells; experiment: Fura-2 calcium imaging in resting human T cells; format: cell-based; conditions: resting T cells preincubated 30 min with 30 μM Da or 500 μM Ry; CPA then Ca^2+ readdition
Experimental: as §1
Cell cultures and chemicals were as described in the Example 1. […]
Fluorescence images were acquired from adherent cells using a SenSys CCD camera (Roper Scientific, Tucson, Ariz.) and a 40× oil immersion Zeiss objective on a Zeiss Axiovert 200 inverted microscope (Thornwood, N.Y.). […] Unless otherwise indicated, in each experiment changes in [Ca^2+]i were recorded from 15-20 cells and then averaged.

[8] = tested on: murine T cell; conditions: cited from earlier work
[9] = tested on: murine T cell; conditions: murine T cells; cited from earlier work

With ryanodine the “[Ca^2+]i elevation evoked by readdition of extracellular Ca^2+ ([Ca^2+]SOCE)” value [1] was “reduced”, the “divalent cation influx (Mn^2+ quench of fura-2 fluorescence)” value [2] was “does not induce Ca^2+ release (FIG. 2 D) or affect divalent ction influx” and the “Jurkat T cell proliferation (CFSE fluorescence profile)” value [3] was “inhibit”. For the same molecule, the “PHA-induced IL-2 production” value [4] was “significantly inhibited”, the “PHA-induced [Ca^2+]i transients in the absence of extracellular Ca^2+” value ([5]; Jurkat T cells preincubated with 400 μM Ry) was “did not significantly affect” and the “CPA-induced [Ca^2+]i transients following PHA in the absence of extracellular Ca^2+” value ([5]; Jurkat T cells preincubated with 400 μM Ry, 30 μM CPA) was “did not significantly affect”. The “reduction of maximal amplitudes of [Ca^2+]i transients during Ca^2+ readdition following TCR stimulation” value ([5]; Jurkat T cells preincubated with 400 μM Ry, PHA then 0.5 mM Ca^2+ readdition) was 42%, the “[Ca^2+]i transients evoked by Ca^2+ readdition ([Ca^2+]SOCE)” value ([5]; Jurkat T cells preincubated with Ry, 2 mM Ca^2+ readdition after CPA, p<0.01, n=6) was “significantly downregulated” and the “store refilling (CPA2/CPA1 ratio)” value ([5]; Jurkat T cells preincubated with Ry, p<0.01, n=6) was “facilitated store refilling”. The “Ca^2+ release on extracellular (acute) application” value ([5]; Ry 400 applied in nominally Ca^2+-free extracellular solution, Jurkat T cells, n=5) was “does not induce Ca^2+ release”, the “normal human activated T cell proliferation (CFSE fluorescence profile)” value [6] was “inhibit” and the “time courses of changes in [Ca^2+]i” value [7] was “did not affect”.

For N.N.N.N.N.N.N.N.N.N.N.N.N.N.[Cl-].[Cl-].[Cl-].[Cl-].[Cl-].[Cl-].[O-2].[O-2].[Ru+3].[Ru+3].[Ru+4] [ruthenium red], the “murine T cell proliferation following TCR stimulation” value [8] is listed as “inhibit” and the “IL-2 production following TCR stimulation” value [9] is listed as “inhibit”.

In the case of O=C1CN(N=Cc2ccc(-c3ccc([N+](=O)[O-])cc3)o2)C(=O)N1 [dantrolene, 1-[[[5-(4-nitrophenyl)-2-furanyl]methylene]amino]-2,4-imidaz olidinedione], the “murine T cell proliferation following TCR stimulation” value [8] is given as “inhibit”, the “[Ca^2+]i elevation evoked by readdition of extracellular Ca^2+ ([Ca^2+]SOCE)” value [1] is given as “reduced” and the “Jurkat T cell proliferation (CFSE fluorescence profile)” value [3] is given as “inhibit”. The “IL-2 production following TCR stimulation” value [9] was “inhibit”, the “PHA-induced IL-2 production” value [4] was “significantly inhibited” and the “normal human activated T cell proliferation (CFSE fluorescence profile)” value [6] was “inhibit”. The “time courses of changes in [Ca^2+]i” value [7] was “did not affect”.

With Cn1c(=O)c2c(ncn2C)n(C)c1=O [caffeine] the “Ca^2+ liberation from the ryanodine-sensitive store” value ([1]; caffeine 20 mM, activated human T cells, normal Tyrode solution) was “produced Ca^2+ liberation”.
